Assay results: patent US11713335B2, “Aminocoumarin compounds and methods of their use” (President and Fellows of Harvard College, priority 2018, dated 2023)
In brackets after ≈: the same amount, converted by molar mass. Read-outs that look alike come from different tables or passages of the source.

Legend:
Assay type in all cases: cell-based
S. aureus RN4220 = experiment: Minimal inhibitory concentration, S. aureus RN4220; settings: Staphylococcus aureus, RN4220, 16 h, read-out: MIC (μM) S. aureus RN4220
Protocol: (§1) General Procedure for Determination of Minimal Inhibitory Concentrations
(§2) Overnight cultures (5 mL) of bacterial strains were grown in LB media or TSA media (for S. aureus) at 37° C. and with shaking at 220 rpm until saturation. The overnight culture was diluted serially 1:100 (50 μL in 5 mL sterile media) and then 1:100 (250 μL in 25 mL sterile media). The 25 mL of diluted culture was then dispensed to a sterile 96 well plate (Corning #3370). 198 μL of culture were dispensed into row A and 100 μL of this culture were dispensed into rows B-H. Aminocoumarin compound (DMSO stock) were added to the first row and then the row was mixed by pipetting. 100 μL of culture from row A were transferred to row B and the serial dilution continued until the final 100 μL from row H were discarded. The plate was incubated without shaking in a 37° C. for 16 hours and then read by visible light spectrophotometer (Molecular Devices) at 600 nm. The minimal inhibitory concentration (MIC) was determined as the lowest concentration of compound concentration that inhibited the growth of bacteria.
(§3) The compounds of the invention were assessed for activities against the pathogens S. aureus RN4220 and MW2, E. cloacae 13047, A. baumannii 19606, K. pneumoniae 700721, E. coli MC4100, 25922. All activities are reported in micromolar (uM) and are 16 hour minimal inhibitory concentrations at 37° C. The assay is detailed in Example 11 and is titled “General Procedure for Determination of Minimal Inhibitory Concentrations.”

S. aureus MW2 = experiment: Minimal inhibitory concentration, S. aureus MW2; settings: Staphylococcus aureus, MRSA, 16 h, read-out: MIC (μM) S. aureus MW2 (MRSA)
Protocol: as §1, §2, §3

E. cloacae 13047 = experiment: Minimal inhibitory concentration, E. cloacae 13047; settings: read-out: MIC (μM) E. cloacae 13047
Protocol: as §1, §2, §3

A. baumannii 19606 = experiment: Minimal inhibitory concentration, A. baumannii 19606; settings: read-out: MIC (μM) A. baumannii 19606
Protocol: as §1, §2, §3

K. pneumoniae 700721 = experiment: Minimal inhibitory concentration, K. pneumoniae 700721; settings: read-out: MIC (μM) K. pneumoniae 700721
Protocol: as §1, §2, §3

E. coli MC4100 = experiment: Minimal inhibitory concentration, E. coli MC4100; settings: Escherichia coli, read-out: MIC (μM) E. coli MC4100 ara+
Protocol: as §1, §2, §3

E. coli 25922 = experiment: Minimal inhibitory concentration, E. coli 25922; settings: read-out: MIC (μM) E. coli 25922
Protocol: as §1, §2, §3

[1] = 16 hour minimal inhibitory concentration at 37° C.
[2] = Enterobacter cloacae, 13047, 16 hour minimal inhibitory concentration at 37° C.
[3] = Acinetobacter baumannii, 19606, 16 h, 16 hour minimal inhibitory concentration at 37° C.
[4] = Klebsiella pneumoniae, 700721, 16 hour minimal inhibitory concentration at 37° C.
[5] = MC4100, 16 h, 16 hour minimal inhibitory concentration at 37° C.
[6] = Escherichia coli, 25922, 16 h, 16 hour minimal inhibitory concentration at 37° C.
[7] = Enterobacter cloacae, 13047, 16 h
[8] = Acinetobacter baumannii, 19606, 16 h
[9] = Klebsiella pneumoniae, 700721, 16 h

SMILES	MIC (S. aureus RN4220; [1]) [µM]	MIC (S. aureus MW2; [1]) [µM]	MIC (E. cloacae 13047; [2]) [µM]	MIC (A. baumannii 19606; [3]) [µM]	MIC (K. pneumoniae 700721; [4]) [µM]	MIC (E. coli MC4100; [5]) [µM]	MIC (E. coli 25922; [6]) [µM]	MIC (S. aureus RN4220) [µM]	MIC (S. aureus MW2) [µM]	MIC (E. cloacae 13047; [7]) [µM]	MIC (A. baumannii 19606; [8]) [µM]	MIC (K. pneumoniae 700721; [9]) [µM]	MIC (E. coli MC4100; MC4100, 16 h) [µM]	MIC (E. coli 25922; Escherichia coli, 25922, 16 h) [µM]	MIC (A. baumannii 19606; Acinetobacter baumannii, 19606, 16 hour minimal inhibitory concentration at 37° C.) [µM]	MIC (E. coli MC4100; MC4100, 16 hour minimal inhibitory concentration at 37° C.) [µM]	MIC (E. coli 25922; Escherichia coli, 25922, 16 hour minimal inhibitory concentration at 37° C.) [µM]
CO[C@@H]1[C@@H](OC(N)=O)[C@@H](O)[C@H](Oc2ccc3c(O)c(NC(=O)c4ccc(O)c(C/C=C/CCC(=O)O)c4)c(=O)oc3c2C)OC1(C)C [Compound 203]	> 100	> 100	> 100	> 50	> 100	> 200	> 200	–	–	–	–	–	–	–	–	–	–
CO[C@@H]1[C@@H](OC(N)=O)[C@@H](O)[C@H](Oc2ccc3c(O)c(NC(=O)c4ccc(Br)cc4)c(=O)oc3c2C)OC1(C)C [Compound 204]	82 (≈ 49.8 µg/mL)	82 (≈ 49.8 µg/mL)	> 100	> 50	> 100	> 200	> 200	–	–	–	–	–	–	–	–	–	–
CO[C@@H]1[C@@H](OC(=O)Nc2ccccc2)[C@@H](O)[C@H](Oc2ccc3c(O)c(NC(=O)c4cccc(-c5ccc6ccccc6c5)c4)c(=O)oc3c2C)OC1(C)C [Compound 205]	9 (≈ 6.58 µg/mL)	9 (≈ 6.58 µg/mL)	> 100	> 50	> 100	> 200	> 200	–	–	–	–	–	–	–	–	–	–
CO[C@@H]1[C@@H](OC(N)=O)[C@@H](O)[C@H](Oc2ccc3c(O)c(NC(=O)c4cccc(CN)c4)c(=O)oc3c2C)OC1(C)C [Compound 206]	> 100	> 100	> 100	> 50	> 100	> 200	> 200	–	–	–	–	–	–	–	–	–	–
CO[C@@H]1[C@@H](OC(N)=O)[C@@H](O)[C@H](Oc2ccc3c(O)c(NC(=O)c4ccc(CN)cc4)c(=O)oc3c2C)OC1(C)C [Compound 207]	> 100	> 100	> 100	> 50	> 100	> 200	> 200	–	–	–	–	–	–	–	–	–	–
CO[C@@H]1[C@H]2OP(=O)(c3ccccc3)O[C@H]2[C@H](Oc2ccc3c(O)c(NC(=O)c4ccc(O)c(CC=C(C)C)c4)c(=O)oc3c2C)OC1(C)C (stereo partly drawn) [Compound 208]	> 100	> 100	> 100	> 50	> 100	> 200	> 200	–	–	–	–	–	–	–	–	–	–
CO[C@@H]1[C@@H](OC(N)=O)[C@@H](O)[C@H](Oc2ccc3c(O)c(NC(=O)OC(C)(C)C)c(=O)oc3c2C)OC1(C)C [Compound 209]	> 100	> 100	> 100	> 50	> 100	> 200	> 200	–	–	–	–	–	–	–	–	–	–
CO[C@@H]1[C@@H](OC(=O)c2ccc(C)n2-c2ccccc2)[C@@H](O)[C@H](Oc2ccc3c(O)c(NC(=O)c4ccc(O)c(CC=C(C)C)c4)c(=O)oc3c2C)OC1(C)C [Compound 210]	33 (≈ 24.8 µg/mL)	33 (≈ 24.8 µg/mL)	> 100	> 50	> 100	> 200	> 200	–	–	–	–	–	–	–	–	–	–
CO[C@@H]1[C@@H](OC(N)=O)[C@@H](O)[C@H](Oc2ccc3c(OCc4ccccc4)c(NC(=O)c4ccc(O)c(CC=C(C)C)c4)c(=O)oc3c2C)OC1(C)C [Compound 211]	> 100	> 100	> 100	> 50	> 100	> 200	> 200	–	–	–	–	–	–	–	–	–	–
C=CCOc1c(NC(=O)c2ccc(O)c(CC=C(C)C)c2)c(=O)oc2c(C)c(O[C@@H]3OC(C)(C)[C@H](OC)[C@@H](OC(N)=O)[C@H]3O)ccc12 [Compound 212]	> 100	> 100	> 100	> 50	> 100	> 200	> 200	–	–	–	–	–	–	–	–	–	–
CO[C@@H]1[C@@H](OC(=O)c2cc(C)c(C)[nH]2)[C@@H](O)[C@H](Oc2ccc3c(O)c(NC(=O)c4ccc(O)c(CC=C(C)C)c4)c(=O)oc3c2C)OC1(C)C [Compound 213]	–	–	–	–	–	–	–	1.8 (≈ 1.24 µg/mL)	0.45 (≈ 0.311 µg/mL)	> 100	4.5 (≈ 3.11 µg/mL)	> 100	> 200	> 200	–	–	–
CO[C@@H]1[C@@H](O)[C@@H](OC(=O)c2cc(C)c(C)[nH]2)[C@H](Oc2ccc3c(O)c(NC(=O)c4ccc(O)c(CC=C(C)C)c4)c(=O)oc3c2C)OC1(C)C [Compound 214]	–	–	–	–	–	–	–	5 (≈ 3.45 µg/mL)	5 (≈ 3.45 µg/mL)	> 100	> 50	> 100	> 200	> 200	–	–	–
CO[C@@H]1[C@@H](OC(N)=O)[C@@H](O)[C@H](Oc2ccc3c(OCCO)c(NC(=O)c4ccc(O)c(CC=C(C)C)c4)c(=O)oc3c2C)OC1(C)C [Compound 215]	38 (≈ 25 µg/mL)	–	> 100	–	> 100	–	–	–	19 (≈ 12.5 µg/mL)	–	–	–	–	–	> 50	> 200	> 200
CO[C@@H]1[C@@H](OC(N)=O)[C@@H](O)[C@H](Oc2ccc3c(OCCCO)c(NC(=O)c4ccc(O)c(CC=C(C)C)c4)c(=O)oc3c2C)OC1(C)C [Compound 216]	19 (≈ 12.7 µg/mL)	19 (≈ 12.7 µg/mL)	> 100	> 50	> 100	> 200	> 200	–	–	–	–	–	–	–	–	–	–
CO[C@@H]1[C@@H](OC(N)=O)[C@@H](O)[C@H](Oc2ccc3c(OCC4CO4)c(NC(=O)c4ccc(O)c(CC=C(C)C)c4)c(=O)oc3c2C)OC1(C)C (stereo partly drawn) [Compound 217]	19 (≈ 12.7 µg/mL)	9 (≈ 6.02 µg/mL)	> 100	> 50	> 100	> 200	> 200	–	–	–	–	–	–	–	–	–	–
CO[C@@H]1[C@@H](OC(N)=O)[C@@H](O)[C@H](Oc2ccc3c(O)c(NC(=O)c4cccc(Nc5ccccc5)c4)c(=O)oc3c2C)OC1(C)C [Compound 218]	10 (≈ 6.2 µg/mL)	10 (≈ 6.2 µg/mL)	> 100	> 50	> 100	80 (≈ 49.6 µg/mL)	161 (≈ 99.8 µg/mL)	–	–	–	–	–	–	–	–	–	–
CO[C@@H]1[C@@H](OC(N)=O)[C@@H](O)[C@H](Oc2ccc3c(O)c(NC(=O)c4cccc(-c5ccc(F)c(F)c5)c4)c(=O)oc3c2C)OC1(C)C [Compound 219]	5 (≈ 3.2 µg/mL)	5 (≈ 3.2 µg/mL)	> 100	> 50	78 (≈ 50 µg/mL)	39 (≈ 25 µg/mL)	20 (≈ 12.8 µg/mL)	–	–	–	–	–	–	–	–	–	–
CO[C@@H]1[C@@H](OC(N)=O)[C@@H](O)[C@H](Oc2ccc3c(O)c(NC(=O)c4cccc(Oc5ccccc5C)c4)c(=O)oc3c2C)OC1(C)C [Compound 220]	10 (≈ 6.35 µg/mL)	10 (≈ 6.35 µg/mL)	> 100	> 50	> 100	158 (≈ 100 µg/mL)	160 (≈ 102 µg/mL)	–	–	–	–	–	–	–	–	–	–
CO[C@@H]1[C@@H](OC(N)=O)[C@@H](O)[C@H](Oc2ccc3c(O)c(NC(=O)c4cccc(Oc5ccc(C)cc5)c4)c(=O)oc3c2C)OC1(C)C [Compound 221]	10 (≈ 6.35 µg/mL)	10 (≈ 6.35 µg/mL)	> 100	> 50	> 100	10 (≈ 6.35 µg/mL)	5 (≈ 3.17 µg/mL)	–	–	–	–	–	–	–	–	–	–
CO[C@@H]1[C@@H](OC(N)=O)[C@@H](O)[C@H](Oc2ccc3c(O)c(NC(=O)c4cccc(-c5ccc(Cl)c(Cl)c5)c4)c(=O)oc3c2C)OC1(C)C [Compound 222]	0.46 (≈ 0.31 µg/mL)	0.23 (≈ 0.155 µg/mL)	> 100	9 (≈ 6.06 µg/mL)	> 100	37 (≈ 24.9 µg/mL)	37 (≈ 24.9 µg/mL)	–	–	–	–	–	–	–	–	–	–
CCCOCCOCC#Cc1ccc(C(=O)Nc2c(O)c3ccc(O[C@@H]4OC(C)(C)[C@H](OC)[C@@H](OC(N)=O)[C@H]4O)c(C)c3oc2=O)cc1 [Compound 226]	> 100	> 100	> 100	> 50	> 100	> 200	> 200	–	–	–	–	–	–	–	–	–	–
